For nine compounds, IC50 results are on record in patent publication US20240059691A1 (KALVISTA PHARMACEUTICALS LIMITED, priority 2020, published 2024).

Bounds are passed on as bounds.

Common to all, as to format: biochemical
For one assay, the target named is Plasma Kallikrein (Homo sapiens (Human), UniProt P03952). As to the kind of experiment: Determination of related protease inhibition: Plasma Kallikrein (fluorogenic substrate at Km). The following applies: 25° C., read-out: IC50 (human PKal). In short, it runs like this: (§1)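 The enzyme from human source is assayed in the presence of various test compound concentrations, with substrate held at its Km. Accumulating fluorescence is tracked for 5 min at 25 °C, and the concentration halving uninhibited activity is reported as IC50.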
Sequence of Plasma Kallikrein (P03952 391-638): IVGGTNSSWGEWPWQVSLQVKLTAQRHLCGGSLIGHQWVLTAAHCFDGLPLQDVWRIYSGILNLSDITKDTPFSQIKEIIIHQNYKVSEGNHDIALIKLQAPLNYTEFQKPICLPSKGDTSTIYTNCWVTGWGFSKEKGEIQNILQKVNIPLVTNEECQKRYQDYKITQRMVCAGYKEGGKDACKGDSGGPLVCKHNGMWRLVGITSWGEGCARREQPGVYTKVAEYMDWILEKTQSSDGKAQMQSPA
Sequence of Plasma Kallikrein (P03952 20-390 partner): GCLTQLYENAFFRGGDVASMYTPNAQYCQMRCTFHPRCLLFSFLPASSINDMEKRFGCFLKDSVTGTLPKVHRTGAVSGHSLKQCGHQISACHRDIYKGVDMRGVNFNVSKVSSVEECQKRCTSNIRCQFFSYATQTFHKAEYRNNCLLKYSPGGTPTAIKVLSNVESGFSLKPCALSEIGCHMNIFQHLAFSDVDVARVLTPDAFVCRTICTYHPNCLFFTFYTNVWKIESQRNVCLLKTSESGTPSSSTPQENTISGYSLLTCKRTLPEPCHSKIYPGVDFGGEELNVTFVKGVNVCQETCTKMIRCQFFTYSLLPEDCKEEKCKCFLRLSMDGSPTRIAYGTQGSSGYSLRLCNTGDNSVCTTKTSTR

A further assay has as its target FXa (Homo sapiens (Human), UniProt P00742). As to the kind of experiment: Determination of related protease inhibition: FXa (fluorogenic substrate at Km). Conditions: 25° C. In short, it runs like this:
as §1

In the next assay the target is Human Factor XIIa (Homo sapiens (Human), UniProt P00748). As to the kind of experiment: Determination of FXIIa inhibition (fluorogenic substrate H-DPro-Phe-Arg-AFC, IC50 assay). Conditions: substrate H-DPro-Phe-Arg-AFC at Km, 25° C.; class scale A-G. In short, it runs like this: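 Human FXIIa incubated at 25° C with fluorogenic substrate H-DPro-Phe-Arg-AFC at its Km concentration and varying compound concentrations. Fluorescence release monitored over 5 min at 25° C; linear rate expressed as % of uninhibited activity to derive IC50.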
Sequence of Human Factor XIIa (P00748 373-615): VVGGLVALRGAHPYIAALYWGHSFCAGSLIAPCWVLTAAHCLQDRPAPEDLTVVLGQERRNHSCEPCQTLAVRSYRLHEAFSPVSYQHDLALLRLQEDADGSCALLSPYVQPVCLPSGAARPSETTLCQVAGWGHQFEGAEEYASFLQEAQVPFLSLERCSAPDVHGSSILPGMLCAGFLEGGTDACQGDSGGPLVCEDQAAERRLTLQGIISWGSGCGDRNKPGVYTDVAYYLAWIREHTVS

The target in a further assay is Thrombin (Homo sapiens (Human), UniProt P00734). As to the kind of experiment: Determination of related protease inhibition: Thrombin (fluorogenic substrate at Km). Conditions: 25° C. In short, it runs like this:
as §1

In a further assay the target is FXIa (Homo sapiens (Human), UniProt P03951). In words: Determination of related protease inhibition: FXIa (fixed substrate concentration of 100 μM). The following applies: 25° C. On the procedure: Determination of Related Protease Inhibition
Sequence of FXIa (P03951 388-625): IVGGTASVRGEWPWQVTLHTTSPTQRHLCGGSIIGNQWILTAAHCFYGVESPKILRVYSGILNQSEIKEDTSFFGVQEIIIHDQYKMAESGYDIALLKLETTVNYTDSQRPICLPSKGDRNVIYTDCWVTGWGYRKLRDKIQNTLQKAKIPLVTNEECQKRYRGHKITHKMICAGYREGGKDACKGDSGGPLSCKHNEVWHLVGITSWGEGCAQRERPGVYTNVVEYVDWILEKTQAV
Sequence of FXIa (P03951 19-387 partner): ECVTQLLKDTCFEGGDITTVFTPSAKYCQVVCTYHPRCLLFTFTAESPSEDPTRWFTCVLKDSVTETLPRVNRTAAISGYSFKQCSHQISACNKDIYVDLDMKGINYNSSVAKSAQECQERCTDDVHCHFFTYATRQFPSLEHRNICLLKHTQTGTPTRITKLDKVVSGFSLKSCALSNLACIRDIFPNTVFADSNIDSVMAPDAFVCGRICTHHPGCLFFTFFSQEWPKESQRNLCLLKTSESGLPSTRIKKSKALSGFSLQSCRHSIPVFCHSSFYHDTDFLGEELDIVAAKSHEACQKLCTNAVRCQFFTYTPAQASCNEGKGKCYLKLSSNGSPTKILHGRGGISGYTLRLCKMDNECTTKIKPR
In vitro inhibition of related proteases was determined using an ([…] assay based on standard literature methods (see e.g. Shori et al., Biochem. Pharmacol., 1992, 43, 1209; Bouckaert et al., European Journal of Medicinal Chemistry 110 (2016) 181). Human serine protease enzymes Plasma Kallikrein, KLK1, FXa, Plasmin, Thrombin and Trypsin were assayed for enzymatic activity using an appropriate fluorogenic substrate at Km concentration, FXIa at fixed substrate concentration of 100 μM, and various concentrations of the test compound. Protease activity was measured by monitoring the accumulation of liberated fluorescence from the substrate over […]. The linear rate of fluorescence increase per minute was expressed as percentage (%) activity. IC50 values were calculated as the concentration of inhibitor giving 50% inhibition of the uninhibited enzyme activity (100%).

Sequence of FXa (P00742 235-488): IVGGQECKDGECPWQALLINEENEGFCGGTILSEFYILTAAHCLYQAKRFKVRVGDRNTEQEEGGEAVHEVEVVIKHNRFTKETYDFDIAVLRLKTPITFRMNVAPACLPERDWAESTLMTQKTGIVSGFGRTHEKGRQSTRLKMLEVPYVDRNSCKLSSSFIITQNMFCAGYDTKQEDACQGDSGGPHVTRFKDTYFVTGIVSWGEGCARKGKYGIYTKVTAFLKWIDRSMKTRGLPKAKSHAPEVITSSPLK
Sequence of FXa (P00742 41-179 partner): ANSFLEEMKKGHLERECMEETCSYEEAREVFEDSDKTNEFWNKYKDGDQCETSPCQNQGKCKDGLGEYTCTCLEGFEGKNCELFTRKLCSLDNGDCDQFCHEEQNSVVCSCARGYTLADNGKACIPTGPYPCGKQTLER

Usually IC50 stands for the concentration at which inhibition is half-maximal. In the case of `CN1CCC(CCc2ccc(CNc3ccc4c(N)nccc4c3)cc2)CC1` [Example 2177, N6-(4-(2-(1-methylpiperidin-4-yl)ethyl)benzyl)isoquinoline-1,6-diamine], the IC50 on Plasma Kallikrein was 1 to 3 µM; against FXa, 3 to 10 µM; against Human Factor XIIa, 0.1 to 0.3 µM; on Thrombin, 3 to 10 µM; on FXIa, greater than 40 µM.
Regarding `CN1CC2C[C@@H]1C[C@H]2OCc1ccc(CNc2ccc3c(N)nccc3c2)c(F)c1` (single isomer, unassigned) [Example 2199, N6-(2-fluoro-4-((((4R*,5R*)-2-methyl-2-azabicyclo[2.2.1]heptan-5-yl)oxy)methyl)benzyl)isoquinoline-1,6-diamine], the IC50 is 3 to 10 µM on Plasma Kallikrein; 3 to 10 µM against FXa; 0.01 to 0.1 µM against Human Factor XIIa; 10 to 40 µM at Thrombin; greater than 20 µM at FXIa.
For `CN1CC2C[C@H]1C[C@H]2OCc1ccc(CNc2ccc3c(N)nccc3c2)c(F)c1` (single isomer, unassigned) [Example 2198, N6-(2-fluoro-4-((((4S*,5R*)-2-methyl-2-azabicyclo[2.2.1]heptan-5-yl)oxy)methyl)benzyl)isoquinoline-1,6-diamine], the IC50 was 3 to 10 µM at Plasma Kallikrein; 3 to 10 µM against FXa; 0.1 to 0.3 µM on Human Factor XIIa; 10 to 40 µM against Thrombin; greater than 20 µM against FXIa.
As to `CCN1CCC(OCc2ccc(CNc3cccc4c(N)nccc34)c(F)c2)CC1` [Example 2201, 5-N-[(4-{[(1-ethylpiperidin-4-yl)oxy]methyl}-2-fluorophenyl)methyl]isoquinoline-1,5-diamine], the IC50 at Plasma Kallikrein was 10 to 40 µM; against FXa it was greater than 20 µM; on Human Factor XIIa, 0.01 to 0.1 µM; against Thrombin it was greater than 20 µM; against FXIa, greater than 20 µM.
Consider `Nc1nccc2cc(NCc3ccc(COC4CCN(C5CC5)CC4)cc3)ccc12` [Example 2195, 6-N-[(4-{[(1-cyclopropylpiperidin-4-yl)oxy]methyl}phenyl)methyl]isoquinoline-1,6-diamine], for which the IC50 at Plasma Kallikrein is 3 to 10 µM; at FXa, 10 to 40 µM; on Human Factor XIIa, 0.3 to 1 µM; against Thrombin, 10 to 40 µM; against FXIa it was greater than 40 µM.
`Nc1nccc2cc(NCc3ccc(COC4CCN(CC(F)F)CC4)cc3)ccc12` [Example 2196, 6-N-{[4-({[1-(2,2-difluoroethyl)piperidin-4-yl]oxy}methyl)phenyl]methyl}isoquinoline-1,6-diamine]: the concentration for half-maximal inhibition (IC50) is 10 to 40 µM at Plasma Kallikrein; 10 to 40 µM at FXa; 1 to 3 µM on Human Factor XIIa; 10 to 40 µM against Thrombin; greater than 40 µM on FXIa.
Take `CCN1CCC(COc2ccc(CNc3ccc4c(N)nccc4c3)cn2)CC1` [Example 1010, 6-N-({6-[(1-ethylpiperidin-4-yl)methoxy]pyridin-3-yl}methyl)isoquinoline-1,6-diamine]: the concentration for half-maximal inhibition (IC50) at Plasma Kallikrein was 3 to 10 µM; against FXa it was 10 to 40 µM; against Human Factor XIIa, 0.1 to 0.3 µM; at Thrombin, 10 to 40 µM; on FXIa, greater than 40 µM.
Turning to `Nc1nccc2cc(NCc3ccnc(-c4cccc(CN5CCCC5)c4)c3)ccc12` [Example 5434, N6-((2-(3-(pyrrolidin-1-ylmethyl)phenyl)pyridin-4-yl)methyl)isoquinoline-1,6-diamine], the IC50 is 1 to 3 µM at Plasma Kallikrein; 1 to 3 µM against FXa; 1 to 3 µM against Human Factor XIIa; 1 to 3 µM against Thrombin; greater than 40 µM against FXIa.
On to `CN1CCC(COc2ccc(CNc3cccc4c(N)nccc34)cn2)CC1` [Example 1009, N5-((6-((1-methylpiperidin-4-yl)methoxy)pyridin-3-yl)methyl)isoquinoline-1,5-diamine], for which the IC50 at Plasma Kallikrein was 3 to 10 µM; against FXa, greater than 40 µM; at Human Factor XIIa, 0.1 to 0.3 µM; on Thrombin it was greater than 40 µM; against FXIa, greater than 40 µM.
